# Experimental data taken from article PMC11864979, “First-in-class ultralong-target-residence-time p38α inhibitors as a mitosis-targeted therapy for colorectal cancer” (Nature Cancer, 2025).
# Where two headings read alike, the source gives them in different places.
# Legend:
# Test in all cases: selectivity profiling in a panel of 340 wild-type kinases (Reaction Biology Europe)
# Format in all cases: binding
# 340 wild-type kinases [1] = biological target: T1, 340 wild-type kinases (Homo sapiens, UniProt Q96RG2)
# T1 construct: purchased Reaction Biology Europe
# T1 sequence (Q96RG2 whole entry): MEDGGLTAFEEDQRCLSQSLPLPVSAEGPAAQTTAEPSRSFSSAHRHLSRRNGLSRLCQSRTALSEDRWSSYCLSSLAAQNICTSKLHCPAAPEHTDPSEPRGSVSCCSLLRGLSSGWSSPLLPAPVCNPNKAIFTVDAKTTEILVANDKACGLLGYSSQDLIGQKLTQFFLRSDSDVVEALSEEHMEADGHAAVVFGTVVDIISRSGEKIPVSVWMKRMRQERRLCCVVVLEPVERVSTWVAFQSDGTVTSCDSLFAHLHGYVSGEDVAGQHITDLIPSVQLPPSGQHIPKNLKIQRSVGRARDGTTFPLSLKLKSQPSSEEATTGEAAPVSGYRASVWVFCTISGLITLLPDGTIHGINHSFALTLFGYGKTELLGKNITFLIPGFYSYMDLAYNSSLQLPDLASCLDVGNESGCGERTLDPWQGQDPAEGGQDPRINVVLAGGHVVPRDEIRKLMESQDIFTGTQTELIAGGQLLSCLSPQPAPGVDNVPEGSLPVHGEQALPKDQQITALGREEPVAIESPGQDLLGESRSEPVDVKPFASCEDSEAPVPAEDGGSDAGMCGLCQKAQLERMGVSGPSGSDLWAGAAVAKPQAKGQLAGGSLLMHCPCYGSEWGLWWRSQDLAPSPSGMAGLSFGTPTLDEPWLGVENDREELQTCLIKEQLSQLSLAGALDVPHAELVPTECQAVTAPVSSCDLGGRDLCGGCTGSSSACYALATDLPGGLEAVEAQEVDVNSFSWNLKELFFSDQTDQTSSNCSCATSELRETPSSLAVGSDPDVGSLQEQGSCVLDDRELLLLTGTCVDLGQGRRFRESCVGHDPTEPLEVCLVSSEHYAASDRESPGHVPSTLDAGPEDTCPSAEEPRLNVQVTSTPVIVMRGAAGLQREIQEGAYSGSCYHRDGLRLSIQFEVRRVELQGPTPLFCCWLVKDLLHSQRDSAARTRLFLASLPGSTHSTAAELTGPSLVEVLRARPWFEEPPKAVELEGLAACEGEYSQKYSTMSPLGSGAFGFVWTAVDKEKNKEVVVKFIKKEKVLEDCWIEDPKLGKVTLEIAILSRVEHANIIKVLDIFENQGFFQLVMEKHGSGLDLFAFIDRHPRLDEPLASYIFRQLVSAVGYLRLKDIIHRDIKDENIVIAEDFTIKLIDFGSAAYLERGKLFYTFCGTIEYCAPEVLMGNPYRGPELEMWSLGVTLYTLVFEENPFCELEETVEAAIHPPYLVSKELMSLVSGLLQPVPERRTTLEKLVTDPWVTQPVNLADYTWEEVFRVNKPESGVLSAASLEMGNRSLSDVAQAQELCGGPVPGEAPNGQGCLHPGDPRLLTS
# 340 wild-type kinases [2] = biological target: T2, 340 wild-type kinases (Homo sapiens, UniProt P41743)
# T2 construct: purchased Reaction Biology Europe
# T2 sequence (P41743 1-596): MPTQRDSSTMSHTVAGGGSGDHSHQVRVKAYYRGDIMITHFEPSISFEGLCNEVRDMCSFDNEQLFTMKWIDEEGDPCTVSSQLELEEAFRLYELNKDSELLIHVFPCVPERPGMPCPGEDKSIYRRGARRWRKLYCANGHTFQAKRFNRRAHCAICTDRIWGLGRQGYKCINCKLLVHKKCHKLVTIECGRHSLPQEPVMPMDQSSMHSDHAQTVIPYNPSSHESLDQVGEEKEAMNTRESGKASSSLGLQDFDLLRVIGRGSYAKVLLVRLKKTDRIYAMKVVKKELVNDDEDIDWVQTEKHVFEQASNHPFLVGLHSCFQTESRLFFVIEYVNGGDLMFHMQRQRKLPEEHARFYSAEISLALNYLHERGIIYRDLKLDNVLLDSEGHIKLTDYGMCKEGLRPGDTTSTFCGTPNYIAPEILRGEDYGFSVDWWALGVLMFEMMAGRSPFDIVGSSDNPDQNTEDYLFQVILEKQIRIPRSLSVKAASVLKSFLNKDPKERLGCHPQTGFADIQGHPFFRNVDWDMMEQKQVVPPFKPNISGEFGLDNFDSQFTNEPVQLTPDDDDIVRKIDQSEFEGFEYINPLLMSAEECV
# 340 wild-type kinases [3] = biological target: T3, 340 wild-type kinases (Homo sapiens, UniProt P52333)
# T3 construct: purchased Reaction Biology Europe
# T3 sequence (P52333 1-1124): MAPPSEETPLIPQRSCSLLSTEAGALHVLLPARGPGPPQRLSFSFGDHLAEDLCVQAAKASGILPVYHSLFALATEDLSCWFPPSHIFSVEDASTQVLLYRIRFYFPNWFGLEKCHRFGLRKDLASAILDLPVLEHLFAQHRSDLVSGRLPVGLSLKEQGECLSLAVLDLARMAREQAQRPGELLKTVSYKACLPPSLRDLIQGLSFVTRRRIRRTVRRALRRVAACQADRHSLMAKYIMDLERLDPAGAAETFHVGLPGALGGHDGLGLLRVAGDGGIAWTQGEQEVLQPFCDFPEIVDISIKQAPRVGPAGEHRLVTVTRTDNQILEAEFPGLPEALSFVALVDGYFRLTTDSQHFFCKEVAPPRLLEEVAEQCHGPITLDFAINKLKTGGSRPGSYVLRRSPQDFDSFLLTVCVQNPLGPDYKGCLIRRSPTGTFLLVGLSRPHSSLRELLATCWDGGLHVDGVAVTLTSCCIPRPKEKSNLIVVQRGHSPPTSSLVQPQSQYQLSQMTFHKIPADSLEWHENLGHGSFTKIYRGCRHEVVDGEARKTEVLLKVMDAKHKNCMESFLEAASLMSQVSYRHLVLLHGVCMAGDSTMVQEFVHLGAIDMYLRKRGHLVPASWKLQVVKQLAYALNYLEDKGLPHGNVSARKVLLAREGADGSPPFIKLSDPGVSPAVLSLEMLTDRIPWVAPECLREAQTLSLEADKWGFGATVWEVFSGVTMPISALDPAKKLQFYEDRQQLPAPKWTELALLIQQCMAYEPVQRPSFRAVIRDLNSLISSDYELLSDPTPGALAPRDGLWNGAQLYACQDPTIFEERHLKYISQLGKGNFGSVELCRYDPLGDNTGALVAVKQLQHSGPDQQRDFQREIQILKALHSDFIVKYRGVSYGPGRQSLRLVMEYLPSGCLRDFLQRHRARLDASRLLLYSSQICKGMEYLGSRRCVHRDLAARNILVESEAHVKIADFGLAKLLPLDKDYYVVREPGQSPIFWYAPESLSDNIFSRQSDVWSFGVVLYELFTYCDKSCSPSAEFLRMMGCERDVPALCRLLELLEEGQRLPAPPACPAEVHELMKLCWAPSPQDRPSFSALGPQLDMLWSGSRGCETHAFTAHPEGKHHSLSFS
# 340 wild-type kinases [4] = biological target: T4, 340 wild-type kinases (Homo sapiens, UniProt Q15831)
# T4 construct: purchased Reaction Biology Europe
# T4 sequence (Q15831 1-433): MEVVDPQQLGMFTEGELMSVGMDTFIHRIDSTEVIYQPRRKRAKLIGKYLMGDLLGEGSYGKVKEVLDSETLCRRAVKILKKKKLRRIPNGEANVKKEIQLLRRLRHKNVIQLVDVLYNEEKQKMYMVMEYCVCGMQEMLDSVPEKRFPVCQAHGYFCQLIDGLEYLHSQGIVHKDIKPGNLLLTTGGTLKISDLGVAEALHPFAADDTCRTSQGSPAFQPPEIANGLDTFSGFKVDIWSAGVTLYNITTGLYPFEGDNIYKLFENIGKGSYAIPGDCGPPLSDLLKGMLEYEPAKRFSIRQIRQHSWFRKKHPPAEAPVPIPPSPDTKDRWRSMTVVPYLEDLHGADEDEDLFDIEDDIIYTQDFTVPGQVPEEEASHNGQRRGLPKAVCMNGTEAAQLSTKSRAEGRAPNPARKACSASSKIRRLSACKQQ
# 340 wild-type kinases [5] = biological target: T5, 340 wild-type kinases (Homo sapiens, UniProt Q9UEW8)
# T5 construct: purchased Reaction Biology Europe
# 340 wild-type kinases [6] = biological target: T6, 340 wild-type kinases (Homo sapiens, UniProt Q9Y2H1)
# T6 construct: purchased Reaction Biology Europe
# T6 sequence (Q9Y2H1 whole entry): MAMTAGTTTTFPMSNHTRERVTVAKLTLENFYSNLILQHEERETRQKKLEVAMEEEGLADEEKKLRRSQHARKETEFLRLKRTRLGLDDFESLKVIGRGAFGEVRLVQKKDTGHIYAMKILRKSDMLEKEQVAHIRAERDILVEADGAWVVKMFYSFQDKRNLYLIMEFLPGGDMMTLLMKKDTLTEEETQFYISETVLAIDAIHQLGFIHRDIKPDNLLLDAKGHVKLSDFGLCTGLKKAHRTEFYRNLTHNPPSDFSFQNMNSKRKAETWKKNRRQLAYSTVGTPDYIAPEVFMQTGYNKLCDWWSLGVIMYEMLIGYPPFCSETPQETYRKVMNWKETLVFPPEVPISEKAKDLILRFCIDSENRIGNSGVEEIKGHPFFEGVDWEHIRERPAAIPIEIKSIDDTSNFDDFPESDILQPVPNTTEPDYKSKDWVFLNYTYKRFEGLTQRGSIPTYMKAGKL
# 340 wild-type kinases [7] = biological target: T7, 340 wild-type kinases (Homo sapiens, UniProt Q13464)
# T7 construct: purchased Reaction Biology Europe
# T7 sequence (Q13464 whole entry): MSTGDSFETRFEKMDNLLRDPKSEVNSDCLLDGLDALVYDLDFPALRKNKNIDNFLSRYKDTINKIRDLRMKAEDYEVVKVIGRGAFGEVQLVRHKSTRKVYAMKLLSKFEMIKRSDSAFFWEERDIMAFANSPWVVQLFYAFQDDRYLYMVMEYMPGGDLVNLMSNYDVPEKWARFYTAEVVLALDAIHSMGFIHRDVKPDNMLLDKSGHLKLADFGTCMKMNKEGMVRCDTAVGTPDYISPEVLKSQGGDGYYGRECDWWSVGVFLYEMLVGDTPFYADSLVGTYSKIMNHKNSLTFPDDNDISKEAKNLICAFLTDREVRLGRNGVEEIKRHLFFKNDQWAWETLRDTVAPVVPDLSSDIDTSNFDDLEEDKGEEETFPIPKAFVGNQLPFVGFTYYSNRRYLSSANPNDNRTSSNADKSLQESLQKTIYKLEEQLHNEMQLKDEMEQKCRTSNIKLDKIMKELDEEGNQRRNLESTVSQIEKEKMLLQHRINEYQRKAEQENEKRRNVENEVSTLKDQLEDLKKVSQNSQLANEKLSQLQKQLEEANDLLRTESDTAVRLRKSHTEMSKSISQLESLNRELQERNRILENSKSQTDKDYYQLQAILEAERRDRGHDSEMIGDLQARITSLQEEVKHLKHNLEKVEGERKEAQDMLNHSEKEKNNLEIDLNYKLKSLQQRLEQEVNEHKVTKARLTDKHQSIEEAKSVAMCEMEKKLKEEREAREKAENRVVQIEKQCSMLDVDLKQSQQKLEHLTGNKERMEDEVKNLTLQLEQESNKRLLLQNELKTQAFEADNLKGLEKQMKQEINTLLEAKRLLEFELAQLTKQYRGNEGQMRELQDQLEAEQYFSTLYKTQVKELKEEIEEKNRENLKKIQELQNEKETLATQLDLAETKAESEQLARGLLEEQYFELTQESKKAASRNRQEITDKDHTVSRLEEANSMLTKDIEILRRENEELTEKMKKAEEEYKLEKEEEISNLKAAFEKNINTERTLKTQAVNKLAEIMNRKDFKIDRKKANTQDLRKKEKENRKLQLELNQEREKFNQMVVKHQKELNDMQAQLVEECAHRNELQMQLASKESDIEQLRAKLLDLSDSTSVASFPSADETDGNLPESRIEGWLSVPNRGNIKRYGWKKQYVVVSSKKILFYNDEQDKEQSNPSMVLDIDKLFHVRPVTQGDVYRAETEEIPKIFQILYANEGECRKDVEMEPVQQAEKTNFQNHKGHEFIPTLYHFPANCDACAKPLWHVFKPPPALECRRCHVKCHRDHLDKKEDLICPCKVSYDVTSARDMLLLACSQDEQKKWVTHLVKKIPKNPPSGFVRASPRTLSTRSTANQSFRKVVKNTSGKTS
compound,measurement,setting,value
CNC(=O)c1ccc2c(c1)C(=O)c1ccc(Nc3ccc(F)c(NC(=O)C4CC4)c3)cc1CC2 [Compound 2015],remaining activity at 0.2 µM,"340 wild-type kinases [1]; 0.2 µM 2015, read-out: PASK residual activity",99.2%
same,remaining activity at 1 µM,"340 wild-type kinases [1]; 1 µM 2015, read-out: PASK residual activity",95.1%
same,remaining activity at 0.2 µM,"340 wild-type kinases [1]; PASK, 0.2 µM, read-out: residual activity",99.2%
same,remaining activity at 1 µM,"340 wild-type kinases [1]; PASK, 1 µM, read-out: residual activity",95.1%
same,remaining activity at 0.2 µM,"340 wild-type kinases [2]; 0.2 µM 2015, read-out: PKCiota residual activity",104%
same,remaining activity at 1 µM,"340 wild-type kinases [2]; 1 µM 2015, read-out: PKCiota residual activity",92%
same,remaining activity at 0.2 µM,"340 wild-type kinases [2]; PKCiota, 0.2 µM, read-out: residual activity",104%
same,remaining activity at 1 µM,"340 wild-type kinases [2]; PKCiota, 1 µM, read-out: residual activity",92%
same,remaining activity at 0.2 µM,"340 wild-type kinases [3]; 0.2 µM 2015, read-out: JAK3 residual activity",105%
same,remaining activity at 1 µM,"340 wild-type kinases [3]; 1 µM 2015, read-out: JAK3 residual activity",110%
same,remaining activity at 0.2 µM,"340 wild-type kinases [3]; JAK3, 0.2 µM, read-out: residual activity",105%
same,remaining activity at 1 µM,"340 wild-type kinases [3]; JAK3, 1 µM, read-out: residual activity",110%
same,remaining activity at 0.2 µM,"340 wild-type kinases [4]; 0.2 µM 2015, read-out: LKB1/MO25a/STRADa residual activity",115%
same,remaining activity at 1 µM,"340 wild-type kinases [4]; 1 µM 2015, read-out: LKB1/MO25a/STRADa residual activity",91.6%
same,remaining activity at 0.2 µM,"340 wild-type kinases [4]; LKB1/MO25a/STRADa, 0.2 µM, read-out: residual activity",115%
same,remaining activity at 1 µM,"340 wild-type kinases [4]; LKB1/MO25a/STRADa, 1 µM, read-out: residual activity",91.6%
same,remaining activity at 0.2 µM,"340 wild-type kinases [5]; 0.2 µM 2015, read-out: STK39 residual activity",109%
same,remaining activity at 1 µM,"340 wild-type kinases [5]; 1 µM 2015, read-out: STK39 residual activity",108%
same,remaining activity at 0.2 µM,"340 wild-type kinases [5]; STK39, 0.2 µM, read-out: residual activity",109%
same,remaining activity at 1 µM,"340 wild-type kinases [5]; STK39, 1 µM, read-out: residual activity",108%
same,remaining activity at 0.2 µM,"340 wild-type kinases [6]; 0.2 µM 2015, read-out: NDR2 residual activity",97.8%
same,remaining activity at 1 µM,"340 wild-type kinases [6]; 1 µM 2015, read-out: NDR2 residual activity",96.6%
same,remaining activity at 0.2 µM,"340 wild-type kinases [6]; NDR2, 0.2 µM, read-out: residual activity",97.8%
same,remaining activity at 1 µM,"340 wild-type kinases [6]; NDR2, 1 µM, read-out: residual activity",96.7%
same,remaining activity at 0.2 µM,"340 wild-type kinases [7]; 0.2 µM 2015, read-out: ROCK1 residual activity",95.1%
same,remaining activity at 1 µM,"340 wild-type kinases [7]; 1 µM 2015, read-out: ROCK1 residual activity",87.2%
same,remaining activity at 0.2 µM,"340 wild-type kinases [7]; ROCK1, 0.2 µM, read-out: residual activity",95.1%
same,remaining activity at 1 µM,"340 wild-type kinases [7]; ROCK1, 1 µM, read-out: residual activity",87.2%
